Here are results for one compound from patent publication US6753177B1, “P-glycoproteins and uses thereof” (Becton Dickinson and Company, priority 1999, dated 2004).

The data set addresses T1, dog PGP (Canis lupus familiaris, UniProt C0KKU9).
T1 construct: expressed in transfected cells; host or cells: LLC-PK1 cells (ATCC), electroporated with the p222CMV episomal vector and selected with hygromycin B
The experiment in a line: Polarization of vinblastine transport across dog PGP transfected LLC-PK1 cell monolayers in Transwells. Type of data set: cell-based. The settings on record: PGP transfected cells, compared with control cells; vinblastine (0.1 uM) transport in Transwells.

Structures are written as SMILES.

T1 sequence (C0KKU9 1-1281): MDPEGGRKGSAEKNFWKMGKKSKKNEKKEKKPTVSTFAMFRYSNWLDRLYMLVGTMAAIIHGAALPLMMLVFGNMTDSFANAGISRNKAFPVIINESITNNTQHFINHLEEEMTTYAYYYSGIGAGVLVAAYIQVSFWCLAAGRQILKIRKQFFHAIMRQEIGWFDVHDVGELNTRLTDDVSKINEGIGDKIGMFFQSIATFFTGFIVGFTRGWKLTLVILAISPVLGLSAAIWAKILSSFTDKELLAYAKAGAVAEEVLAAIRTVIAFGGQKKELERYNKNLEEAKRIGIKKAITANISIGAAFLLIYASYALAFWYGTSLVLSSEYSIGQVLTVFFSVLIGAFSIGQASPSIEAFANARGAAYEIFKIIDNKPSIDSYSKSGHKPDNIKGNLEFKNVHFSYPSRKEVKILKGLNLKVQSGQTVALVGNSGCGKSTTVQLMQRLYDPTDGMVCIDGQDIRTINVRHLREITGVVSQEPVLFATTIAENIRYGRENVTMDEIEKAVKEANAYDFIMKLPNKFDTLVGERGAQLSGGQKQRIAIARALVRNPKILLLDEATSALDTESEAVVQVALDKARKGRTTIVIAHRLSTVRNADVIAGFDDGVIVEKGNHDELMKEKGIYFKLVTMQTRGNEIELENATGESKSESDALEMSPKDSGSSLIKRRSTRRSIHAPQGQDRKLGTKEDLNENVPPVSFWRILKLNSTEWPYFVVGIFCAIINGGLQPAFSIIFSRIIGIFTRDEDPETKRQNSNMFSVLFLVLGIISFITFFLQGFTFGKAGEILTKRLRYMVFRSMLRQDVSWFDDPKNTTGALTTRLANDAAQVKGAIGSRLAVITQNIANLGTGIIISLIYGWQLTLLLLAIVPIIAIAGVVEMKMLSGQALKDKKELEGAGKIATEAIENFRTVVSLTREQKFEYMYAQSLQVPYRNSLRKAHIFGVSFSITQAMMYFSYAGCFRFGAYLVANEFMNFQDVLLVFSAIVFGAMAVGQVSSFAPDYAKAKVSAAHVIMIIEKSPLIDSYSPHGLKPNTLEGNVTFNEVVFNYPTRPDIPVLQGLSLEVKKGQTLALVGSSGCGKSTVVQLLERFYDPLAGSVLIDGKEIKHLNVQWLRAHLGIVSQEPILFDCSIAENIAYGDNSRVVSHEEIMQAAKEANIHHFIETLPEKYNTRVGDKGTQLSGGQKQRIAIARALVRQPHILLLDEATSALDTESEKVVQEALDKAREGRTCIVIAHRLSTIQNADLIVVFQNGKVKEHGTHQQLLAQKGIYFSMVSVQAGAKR
Excerpt: Dog PGP cDNA (SEQ ID NO:1) is introduced into a clonal population of LLC-PK1 cells in a vector that confers resistance to hygromycin B. LLC-PK1 cells are obtained from the American Type Culture Collections and are propagated in Medium 199 supplemented to 7% with fetal bovine serum. LLC-PK1 cells are recloned prior to transfection in order to assure homogeneity of the cell population. Briefly, dog PGP cDNA is incorporated into the p222CMV vector. […] The PGP cDNA is under the control of the cytomegalovirus (CMV) immediate early promoter. The vector confers resistance to hygromycin B. Cells (in 0.4 mL) and DNA (10 to 20 μg) were transfected by electroporation using a BTX Electro cell manipulator model 600 using a 2 mm gap cell, 100V, 2500 μF capacitance and 72 ohm resistance. […] Expression of PGP is measured by the polarization of vinblastine (0.1 uM) transport in Transwells™.
LLC-PK1 cell based transport studies are conducted in 24 well Transwells™ (Corning Costar, Catalog number 3415). […] Transport is measured under sink conditions in both the apical to basolateral (A to B) and basolateral to apical (B to A) directions. […] Quantitation of the amount of compound transported is by liquid scintillation counting (vinblastine) or HPLC with UV or mass spectrometric detection.
Functional expression of dog PGP is measured by the polarization of transport of vinblastine.

`CC[C@]1(O)C[C@@H]2CN(CCc3c([nH]c4ccccc34)[C@@](C(=O)OC)(c3cc4c(cc3OC)N(C)[C@H]3[C@@](O)(C(=O)OC)[C@H](OC(C)=O)[C@]5(CC)C=CCN6CC[C@]43[C@@H]65)C2)C1` [vinblastine]: the “B to A/A to B ratio” value is recorded as “much higher ratio”.
